# From patent publication EP3811940B1, “SUBSTITUTED 4,5'-BITHIAZOLES AS INHIBITORS OF THE HUMAN DNA TOPOISOMERASE II” (Kemijski Institut, priority 2019, dated 2021)
# What was measured:
# Format in all cases: biochemical
# human topo IIα [1] = biological target: T1, human topo IIα (Homo sapiens, UniProt P11388); experiment: ATP hydrolysis (ATPase) assay coupled to NADH oxidation
# T1 construct: purchased Inspiralis (Norwich, UK)
# Procedure: To investigate if our compounds can inhibit the ATP hydrolysis, catalysed by human topo IIα, first ATP hydrolysis assay was performed for compound 1. This assay is coupled to the oxidation of NADH, which was indicated by the decrease of optical density at 340 nm. Etoposide was used as a control compound.
# Compounds were analyzed using a linked assay in which the ADP produced by the hydrolysis of ATP leads to conversion of NADH to NAD by a pyruvate kinase/lactate dehydrogenase mix. The disappearance of NADH is monitored at 340 nm. A mix of assay buffer (5 µL of 10X buffer per assay: final conc. 20 mM Tris-HCl, 5 mM magnesium acetate, 125 mM potassium acetate, 2 mM DTT, pH 7.9), linear pBR322 (1.5 µL of 1mg/mL per assay), phosphoenol pyruvate (0.5 µL of 80 mM per assay), pyruvate kinase/lactate dehydrogenase mix (0.75 µL per assay), NADH (1 µL of 20 mM per assay) and water (34.35 µL per assay) was made. 41.1 µL was aliquoted into the wells of a 384-well microtitre plate. […] 5 µL of the dilution buffer or human topo IIα (200 nM stock giving 12 nM final concentration) were then added and mixed. The change in OD340 was then measured in a plate reader over a period of about 10 minutes (called the prerun). 3.4 µL of 30 mM ATP was then added and the OD340 monitored for up to 30 minutes. Assays were performed at 37 °C. The final DMSO concentration in all the reactions was 1 % (v/v). Assays were performed at 3.9, 31.5, 125, and 500 µM final concentrations of the investigated compound 1. Compound were serially diluted in DMSO and added to the reaction before the addition of the enzyme. Control compound for was Etoposide. Determination if compound 1 from class of substituted 4,5'-bithiazoles inhibits ATPase activity of human topo II enzyme was performed in collaboration with Inspiralis.
# human topo IIα [2] = biological target: T1, human topo IIα; experiment: kDNA decatenation assay catalysed by human topo IIα; conditions: for % Decatenated Assay 1 / % Decatenated Assay 2: % of decatenated kDNA; for % Decatenated Average: average of two assays
# Procedure: One U of human topo II (α or β) was incubated with 200 ng kDNA in a 30 µL reaction at 37°C for 30 minutes under the following conditions: 50 mM Tris HCl (pH 7.5), 125 mM NaCl, 10 mM MgCl2, 5 mM DTT, 0.5 mM EDTA, 0.1 mg/ml bovine serum albumin (BSA) and 1 mM ATP. Compounds 1 and 9 were serially diluted in DMSO and added to the reaction mixture before the addition of the enzyme. […] Each reaction was then stopped by the addition of 30 µL chloroform/iso-amyl alcohol ([…]) and 30 µL Stop Dye (40 % sucrose (w/v), 100 mM Tris.HCl (pH 7.5), 10 mM EDTA, 0.5 µg/mL bromophenol blue), before being loaded on a 1% TAE gel run at 85 V for 90 minutes. Assays were performed at 4 concentrations of ligand: 3.9, 31.5, 125 and 500 µM. The final DMSO concentration in all reactions was 1 % (v/v).
# Bands were visualized by the ethidium bromide staining for 15 minutes and destaining for subsequent 10 minutes. Gels were scanned using the documentation equipment (GeneGenius, Syngene, Cambridge, UK) and inhibition levels were calculated from band data obtained with gel scanning software (GeneTools, Syngene, Cambridge,UK). Experiment was performed in duplicates for all compounds.
# human topo IIα [3] = biological target: T1, human topo IIα; experiment: HTS relaxation assay of human topo IIα; conditions: screening at 7.8, 31.5, 125 and 500 µM
# Procedure: The 14 selected compounds from the class of substituted 4,5'-bithiazoles were experimentally assayed if they inhibit catalytic activity of human topo IIα using an established high-throughput screening (HTS) relaxation assay for human topo IIα [24].
# The HTS assays primarily served to select compounds for further evaluation.
# Plate was rehydrated using wash buffer (20 mM Tris-HCl (pH = 7.6), 137 mM NaCl, 0.005 % (w/v) BSA, 0.05 % (v/v) TWEEN-20®) and biotinylated oligonucleotide was immobilized onto the wells. Next, the excess oligonucleotide was washed off with wash buffer. Enzyme assay was carried out in reaction volume of 30 µL using 0.75 µg supercoiled plasmid pNO1 as a substrate and human topo IIα. Enzyme was diluted to the appropriate concentration with dilution buffer comprised of 50 mM Tris-Hcl (pH = 7.5), 100 mM NaCl, 1 mM DTT, 0.5 mM EDTA, 50 % (v/v) glycerol and 50 µg/mL albumin. Tested compounds (0.3 µL) were added as a stock solution in DMSO and final concentration of DMSO was 1 %, respectively. Reactions were incubated at 37 °C for 30 min, and TF buffer (50 mM NaOAc (pH = 5.0), 50 mM NaCl, 50 mM MgCl2) was added to the wells and incubated at room temperature for additional 30 min to allow the triplex biotin-oligonucleotid-plasmid formation. To eliminate the aggregation and non-specific inhibition a surfactant (TWEEN-20®) was added to the reaction mixture. Unbound plasmid was washed off with TF buffer and stained with the DNA-detection Dye in the T10 buffer (10 mM Tris-HCl (pH = 8) and 1 mM EDTA) was added. After mixing, fluorescence was read using Tecan fluorimeter (Excitation: 485 nm and Emission: 535 nm). Screening was performed at the inhibitor concentrations of 7.8, 31.5, 125 and 500 µM. IC50 values were calculated using GraphPad Prism 6.0 software and represent the concentrations of inhibitors where residual activity of the enzyme was 50 % [24].
# T1 sequence (P11388 whole entry): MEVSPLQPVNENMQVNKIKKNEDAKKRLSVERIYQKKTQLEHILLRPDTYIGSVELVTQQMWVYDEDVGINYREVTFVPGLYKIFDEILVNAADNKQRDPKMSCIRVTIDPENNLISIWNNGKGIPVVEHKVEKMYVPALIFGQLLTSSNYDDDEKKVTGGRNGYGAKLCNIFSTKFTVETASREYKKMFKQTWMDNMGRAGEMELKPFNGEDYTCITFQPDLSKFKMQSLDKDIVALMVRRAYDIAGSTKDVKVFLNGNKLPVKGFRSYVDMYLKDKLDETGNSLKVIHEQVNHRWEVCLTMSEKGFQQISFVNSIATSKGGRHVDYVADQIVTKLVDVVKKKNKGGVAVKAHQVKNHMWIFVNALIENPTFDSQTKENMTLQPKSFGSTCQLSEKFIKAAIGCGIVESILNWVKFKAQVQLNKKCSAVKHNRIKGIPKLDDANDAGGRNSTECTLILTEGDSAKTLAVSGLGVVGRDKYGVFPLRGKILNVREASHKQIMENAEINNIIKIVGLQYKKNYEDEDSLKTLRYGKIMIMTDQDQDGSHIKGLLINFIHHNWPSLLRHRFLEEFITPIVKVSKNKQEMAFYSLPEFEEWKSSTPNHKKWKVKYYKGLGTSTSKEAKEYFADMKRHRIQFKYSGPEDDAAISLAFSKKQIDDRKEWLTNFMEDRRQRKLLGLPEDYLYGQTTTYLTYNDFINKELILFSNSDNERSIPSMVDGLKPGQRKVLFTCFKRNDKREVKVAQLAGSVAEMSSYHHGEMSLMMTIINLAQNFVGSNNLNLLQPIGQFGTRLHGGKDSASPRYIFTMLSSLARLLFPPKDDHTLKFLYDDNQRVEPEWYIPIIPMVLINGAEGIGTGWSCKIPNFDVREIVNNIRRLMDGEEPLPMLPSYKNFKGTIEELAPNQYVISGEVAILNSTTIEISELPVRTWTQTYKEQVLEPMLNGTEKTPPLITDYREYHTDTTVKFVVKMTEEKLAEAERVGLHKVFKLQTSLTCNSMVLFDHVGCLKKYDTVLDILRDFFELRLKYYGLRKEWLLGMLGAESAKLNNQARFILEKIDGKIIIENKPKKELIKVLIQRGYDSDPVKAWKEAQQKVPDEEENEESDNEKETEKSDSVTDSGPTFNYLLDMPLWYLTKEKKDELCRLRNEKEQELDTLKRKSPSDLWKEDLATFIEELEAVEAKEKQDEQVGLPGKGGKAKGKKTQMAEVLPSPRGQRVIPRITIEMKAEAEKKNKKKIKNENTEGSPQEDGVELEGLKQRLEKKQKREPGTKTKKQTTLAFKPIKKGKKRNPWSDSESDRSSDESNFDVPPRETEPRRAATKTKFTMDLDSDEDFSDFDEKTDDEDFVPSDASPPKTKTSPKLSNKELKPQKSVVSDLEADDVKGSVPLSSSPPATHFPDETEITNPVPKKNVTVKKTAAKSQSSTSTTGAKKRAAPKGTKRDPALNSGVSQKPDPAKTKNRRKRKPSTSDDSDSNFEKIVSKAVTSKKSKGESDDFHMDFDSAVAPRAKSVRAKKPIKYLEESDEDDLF
inhibition at 125 µM (human topo IIα [1]; first parallel),inhibition at 125 µM (human topo IIα [1]; second parallel),% Decatenated Assay 1 (human topo IIα [2]; 3.9 µM),% Decatenated Assay 2 (human topo IIα [2]; 3.9 µM),% Decatenated Average (human topo IIα [2]; 3.9 µM),inhibition at 31.5 µM (human topo IIα [2]; 31.5 µM),% Decatenated Assay 1 (human topo IIα [2]; 31.5 µM),% Decatenated Assay 2 (human topo IIα [2]; 31.5 µM),% Decatenated Average (human topo IIα [2]; 31.5 µM),% of inhibition of decatenation (human topo IIα [2]; 125 µM),% Decatenated Assay 1 (human topo IIα [2]; 125 µM),% Decatenated Assay 2 (human topo IIα [2]; 125 µM),% Decatenated Average (human topo IIα [2]; 125 µM),% of inhibition of decatenation (human topo IIα [2]; 500 µM),% Decatenated Assay 1 (human topo IIα [2]; 500 µM),% Decatenated Assay 2 (human topo IIα [2]; 500 µM),% Decatenated Average (human topo IIα [2]; 500 µM),IC50 (human topo IIα [3]),inhibition at 125 µM (human topo IIα [2]; 125 µM),inhibition at 500 µM (human topo IIα [2]; 500 µM),Structure (SMILES)
75%,85%,100%,91%,95.5%,19.1%,72.4%,89.4%,80.5%,full inhibition,0%,0%,0%,full inhibition,0%,0%,0%,33.4 µM,,,"Cc1nc(N)sc1-c1csc(Nc2ccc(C(F)(F)F)cc2)n1 [Compound 1, 4'-methyl-N2-(4-(trifluoromethyl)phenyl)-[4,5'-bithiazole]-2,2'-diamine]"
,,98.7%,99.2%,98.9%,,99.4%,97.9%,98.7%,,89.5%,86.7%,88.1%,,34%,31.3%,32.7%,60 µM,11.9%,67.3%,"CC(=O)Nc1ccc(Nc2nc(-c3sc(NC(C)=O)nc3C)cs2)cc1 [Compound 9, N-(4-((2'-acetamido-4'-methyl-[4,5'-bithiazol]-2-yl)amino)phenyl)acetamide]"
70%,63%,,,,,,,,,,,,,,,,,,,"COc1cc([C@@H]2c3cc4c(cc3[C@@H](O[C@@H]3O[C@@H]5CO[C@@H](C)O[C@H]5[C@H](O)[C@H]3O)[C@H]3COC(=O)[C@H]23)OCO4)cc(OC)c1O [Etoposide, etoposide, reference compound]"
